Values of other authors, collected in patent US20230330068A1, “GEL COMPOSITION OF LULICONAZOLE FOR TREATMENT OF VAGINAL FUNGAL INFECTIONS AND ITS MANUFACTURING PROCESS” (priority 2023, published 2023).

Test system: Candida
Settings: anticandidal activity; recent findings from the literature

Q: Which “minimum inhibitory concentration (MIC) range” value does the source give for `N#C/C(=C1/SC[C@@H](c2ccc(Cl)cc2Cl)S1)n1ccnc1` [Luliconazole] here?
A: 31 to 130 µg/mL
